Laboratory results taken from US20260232682A1, “GSPT1 DEGRADER COMPOUNDS” (Captor Therapeutics S.A., priority 2023, published 2026).

Assays:
GSPT1-HiBiT HEK293 cells = assay: Cell Viability-CTG assay accompanying the Nano-Glo HiBiT assay; assay type: cell-based; details: 6 hours treatment, viability of GSPT1-HiBiT HEK293 cells
How it was run: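 HEK293 GSPT1-HiBiT cells treated as for the HiBiT assay, incubated 6 h at 37 °C/5% CO2, then equilibrated to RT. Viability read by CellTiter-Glo luminescence after 4 min shaking and 8 min dark incubation; Mean Minimum values derived by non-linear regression of RLU data.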

[1] = target: T1, [IKZF1 ZF2]-[compound]-[CRBN/DDB1] ternary complex (Homo sapiens, UniProt Q13422+Q96SW2); assay: AlphaLISA assay for off-target recruitment detection, IKZF1 ZF2; assay type: binding; details: 1 μM compound; normalized to Lenalidomide; read-out: Normalized ternary complex response, IKZF1 ZF2
T1 construct: IKZF1 ZF2
How it was run: (§1)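 Neo-substrate with 40 μg/ml donor beads and 200 nM 6×His-CRBN/DDB1 with 40 μg/ml anti-His acceptor beads were each prepared in PBS pH 7.4 with Tween-20 and 1 mM DTT, preincubated 30 min at RT, then mixed. Compounds at 2% DMSO were incubated 30 min at 25 °C, read at 680/615 nm, and normalised between DMSO background and reference glue maximum.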

[2] = target: [GSPT1]-[compound of formula (I)]-[CRBN/DDB1] complex (Homo sapiens, UniProt P15170+Q96SW2); assay: HTRF ternary complex assay (GSPT1); assay type: binding; details: read-out: HTRF ternary complex Average pEC50 by molecule (converted)
How it was run: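 Compounds in dose-response were incubated 180 min at 25 °C with 48 nM GSPT1 and 52.8 nM 6×His-CRBN/DDB1, plus Streptavidin-Eu cryptate and anti-6×His-d2, in buffer with 1 mM DTT and 0.5% DMSO. TR-FRET (665/620) was normalized to DMSO background and fitted with a Hill slope model for EC50/pEC50.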

[3] = target: T2, [SALL4 ZF2]-[compound]-[CRBN/DDB1] ternary complex (Homo sapiens, UniProt Q96SW2+Q9UJQ4); assay: AlphaLISA assay for off-target recruitment detection, SALL4 ZF2; assay type: binding; details: 1 μM compound; normalized to Lenalidomide; read-out: Normalized ternary complex response, SALL4 ZF2
T2 construct: SALL4 ZF2
How it was run: as §1

[4] = target: CRBN/DDB1 protein complex (Homo sapiens, UniProt Q96SW2); assay: CRBN displacement TR-FRET assay; details: Thalidomide-Red tracer, 6×His-CRBN/DDB1; read-out: CRBN binding Ki
How it was run: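 Test compound at various concentrations competed with 6.8 nM Thalidomide-Red tracer for 5 nM 6×His-CRBN/DDB1, detected with 0.5 nM anti-His-Eu cryptate in buffer with 1 mM DTT and 1% DMSO. Incubation ran 180 min at room temperature with a time-resolved fluorescence read-out. IC50 values were converted to Ki by Cheng–Prusoff using tracer Kd and protein and tracer concentrations.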

Sequence of [GSPT1]-[compound of formula (I)]-[CRBN/DDB1] complex (P15170 whole entry): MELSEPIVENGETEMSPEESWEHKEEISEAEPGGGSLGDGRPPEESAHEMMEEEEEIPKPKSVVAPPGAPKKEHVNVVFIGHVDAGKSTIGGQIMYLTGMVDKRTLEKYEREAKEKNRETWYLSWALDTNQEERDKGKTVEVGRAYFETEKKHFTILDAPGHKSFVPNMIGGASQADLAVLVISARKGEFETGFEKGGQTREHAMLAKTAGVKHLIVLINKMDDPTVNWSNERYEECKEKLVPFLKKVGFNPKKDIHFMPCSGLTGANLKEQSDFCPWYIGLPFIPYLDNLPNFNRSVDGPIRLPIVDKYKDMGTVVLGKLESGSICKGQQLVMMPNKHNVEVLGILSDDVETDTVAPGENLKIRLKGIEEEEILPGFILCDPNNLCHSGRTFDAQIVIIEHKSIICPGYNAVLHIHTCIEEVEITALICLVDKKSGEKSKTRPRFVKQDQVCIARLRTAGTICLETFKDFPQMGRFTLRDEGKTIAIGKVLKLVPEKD
Sequence of [GSPT1]-[compound of formula (I)]-[CRBN/DDB1] complex (Q96SW2 whole entry): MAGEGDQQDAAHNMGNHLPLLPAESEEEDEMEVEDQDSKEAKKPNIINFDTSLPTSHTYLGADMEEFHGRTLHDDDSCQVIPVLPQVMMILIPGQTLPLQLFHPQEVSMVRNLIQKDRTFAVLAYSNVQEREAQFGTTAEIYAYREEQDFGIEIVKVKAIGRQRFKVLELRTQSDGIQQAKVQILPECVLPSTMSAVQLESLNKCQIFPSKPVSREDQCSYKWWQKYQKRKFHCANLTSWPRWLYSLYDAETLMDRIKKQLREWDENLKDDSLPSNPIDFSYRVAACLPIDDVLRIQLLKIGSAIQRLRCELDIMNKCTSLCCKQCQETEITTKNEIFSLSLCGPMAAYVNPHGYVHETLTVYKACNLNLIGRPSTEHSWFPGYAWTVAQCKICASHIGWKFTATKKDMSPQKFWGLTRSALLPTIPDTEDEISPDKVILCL
Sequence of [GSPT1]-[compound of formula (I)]-[CRBN/DDB1] complex (Q16531 whole entry partner): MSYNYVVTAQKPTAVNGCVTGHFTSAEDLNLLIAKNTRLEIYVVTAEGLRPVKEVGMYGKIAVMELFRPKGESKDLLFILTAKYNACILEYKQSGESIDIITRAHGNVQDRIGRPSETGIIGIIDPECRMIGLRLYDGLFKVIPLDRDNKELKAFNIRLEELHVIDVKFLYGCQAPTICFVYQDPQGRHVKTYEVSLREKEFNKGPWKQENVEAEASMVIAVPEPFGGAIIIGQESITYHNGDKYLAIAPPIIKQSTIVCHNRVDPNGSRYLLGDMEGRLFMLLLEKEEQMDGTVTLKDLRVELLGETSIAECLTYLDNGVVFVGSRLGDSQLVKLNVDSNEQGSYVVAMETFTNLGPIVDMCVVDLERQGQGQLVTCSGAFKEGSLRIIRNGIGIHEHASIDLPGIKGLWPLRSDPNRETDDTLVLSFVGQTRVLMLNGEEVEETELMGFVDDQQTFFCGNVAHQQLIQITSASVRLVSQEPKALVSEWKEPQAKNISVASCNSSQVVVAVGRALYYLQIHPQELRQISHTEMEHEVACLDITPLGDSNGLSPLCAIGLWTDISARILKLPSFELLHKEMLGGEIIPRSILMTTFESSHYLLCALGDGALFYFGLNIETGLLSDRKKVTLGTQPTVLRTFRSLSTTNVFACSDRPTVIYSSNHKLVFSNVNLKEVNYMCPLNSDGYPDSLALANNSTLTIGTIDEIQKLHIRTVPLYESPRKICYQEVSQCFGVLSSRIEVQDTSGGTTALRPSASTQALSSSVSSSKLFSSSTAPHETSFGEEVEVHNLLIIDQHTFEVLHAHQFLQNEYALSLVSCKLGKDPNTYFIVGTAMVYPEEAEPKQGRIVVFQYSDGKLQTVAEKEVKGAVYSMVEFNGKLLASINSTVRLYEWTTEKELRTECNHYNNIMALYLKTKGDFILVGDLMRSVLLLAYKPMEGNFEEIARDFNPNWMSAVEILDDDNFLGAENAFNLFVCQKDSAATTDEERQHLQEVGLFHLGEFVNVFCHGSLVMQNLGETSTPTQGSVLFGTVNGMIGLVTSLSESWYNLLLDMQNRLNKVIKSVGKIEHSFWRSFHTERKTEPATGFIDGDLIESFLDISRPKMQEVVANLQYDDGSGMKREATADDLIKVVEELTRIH
T1 sequence (Q13422 145-167 limits assumed): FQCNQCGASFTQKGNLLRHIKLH
T1 sequence (Q96SW2 whole entry): as the sequence (Q96SW2 whole entry) above
T1 sequence (Q16531 whole entry partner): as the sequence (Q16531 whole entry partner) above
Sequence of CRBN/DDB1 protein complex (Q96SW2 whole entry, species assumed): as the sequence (Q96SW2 whole entry) above
Sequence of CRBN/DDB1 protein complex (Q16531 whole entry partner, species assumed): as the sequence (Q16531 whole entry partner) above
T2 sequence (Q9UJQ4 410-432 limits assumed): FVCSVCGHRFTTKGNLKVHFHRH
T2 sequence (Q96SW2 whole entry): as the sequence (Q96SW2 whole entry) above
T2 sequence (Q16531 whole entry partner): as the sequence (Q16531 whole entry partner) above

Structure (SMILES)	CTG assay Mean minimum (GSPT1-HiBiT HEK293 cells)	activation at 1 µM [1]	EC50 [2]	activation at 1 µM [3]	Ki [4]
Cc1nc2cc(COC(=O)Nc3ccc(N4CCOCC4)nc3)ccc2cc1C1CCC(=O)NC1=O (stereo not drawn) [Compound 42, (3-(2,6-dioxopiperidin-3-yl)-2-methylquinolin-7-yl)methyl (6-morpholinopyridin-3-yl)carbamate]	++++ (++++≥75% of viability of the HiBiT-GSPT1 HEK293 cells)	< 10%	316 to 3160 nM	< 10%	< 500 nM
Cc1nc2cc(COC(=O)Nc3ccc4c(c3)OCCO4)ccc2cc1C1CCC(=O)NC1=O (stereo not drawn) [Compound 15, (3-(2,6-dioxopiperidin-3-yl)-2-methylquinolin-7-yl)methyl (2,3-dihydrobenzo[b][1,4]dioxin-6-yl)carbamate]	++++ (++++≥75% of viability of the HiBiT-GSPT1 HEK293 cells)	< 10%	316 to 3160 nM	< 10%	> 1000 nM
Cc1nc2cc(COC(=O)Nc3cc(OC(F)(F)F)ccc3F)ccc2cc1C1CCC(=O)NC1=O (stereo not drawn) [Compound 6, (3-(2,6-dioxopiperidin-3-yl)-2-methylquinolin-7-yl)methyl (2-fluoro-5-(trifluoromethoxy)phenyl)carbamate]	++++ (++++≥75% of viability of the HiBiT-GSPT1 HEK293 cells)	< 10%	316 to 3160 nM	< 10%	> 1000 nM
Cc1nc2cc(COC(=O)Nc3cccc(C(C)(C)C)c3)ccc2cc1C1CCC(=O)NC1=O (stereo not drawn) [Compound 9, (3-(2,6-dioxopiperidin-3-yl)-2-methylquinolin-7-yl)methyl (3-(tert-butyl)phenyl)carbamate]	++++ (++++≥75% of viability of the HiBiT-GSPT1 HEK293 cells)	< 10%	316 to 3160 nM	< 10%	> 1000 nM
Cc1nc2cc(COC(=O)Nc3cc(C(F)(F)F)no3)ccc2cc1C1CCC(=O)NC1=O (stereo not drawn) [Compound 71, (3-(2,6-dioxopiperidin-3-yl)-2-methylquinolin-7-yl)methyl (3-(trifluoromethyl)isoxazol-5-yl)carbamate]	++++ (++++≥75% of viability of the HiBiT-GSPT1 HEK293 cells)	< 10%	> 3160 nM	< 10%	> 1000 nM
Cc1nc2cc(COC(=O)Nc3cc(C4(C(F)(F)F)CC4)no3)ccc2cc1C1CCC(=O)NC1=O (stereo not drawn) [Compound 81, (3-(2,6-dioxopiperidin-3-yl)-2-methylquinolin-7-yl)methyl (3-(1-(trifluoromethyl)cyclopropyl)isoxazol-5-yl)carbamate]	++++ (++++≥75% of viability of the HiBiT-GSPT1 HEK293 cells)	< 10%	< 316 nM	< 10%	< 500 nM
Cc1nc2cc(COC(=O)Nc3ccc(-c4ccccc4)nc3)ccc2cc1C1CCC(=O)NC1=O (stereo not drawn) [Compound 20, (3-(2,6-dioxopiperidin-3-yl)-2-methylquinolin-7-yl)methyl (6-phenylpyridin-3-yl)carbamate]	++++ (++++≥75% of viability of the HiBiT-GSPT1 HEK293 cells)	< 10%	< 316 nM	< 10%	< 500 nM
Cc1nc2cc(COC(=O)Nc3csc(-c4ccccc4)c3)ccc2cc1C1CCC(=O)NC1=O (stereo not drawn) [Compound 37, (3-(2,6-dioxopiperidin-3-yl)-2-methylquinolin-7-yl)methyl (5-phenylthiophen-3-yl)carbamate]	++++ (++++≥75% of viability of the HiBiT-GSPT1 HEK293 cells)	< 10%	316 to 3160 nM	< 10%	500 to 1000 nM
Cc1nc2cc(CNC(=O)Nc3cc(C(C)(C)C)no3)ccc2cc1N1CCC(=O)NC1=O [Compound 64, 1-(3-(tert-butyl)isoxazol-5-yl)-3-((3-(2,4-dioxotetrahydropyrimidin-1(2H)-yl)-2-methylquinolin-7-yl)methyl)urea]	++++ (++++≥75% of viability of the HiBiT-GSPT1 HEK293 cells)	< 10%	< 316 nM	< 10%	< 500 nM
